Source: ChEMBL document CHEMBL5236632, “Membrane-Active Nonivamide Derivatives as Effective Broad-Spectrum Antimicrobials: Rational Design, Synthesis, and Biological Evaluation” (J Med Chem, 2022)
Converted amounts (≈) assume the structure as drawn.

What was measured:
Klebsiella pneumoniae = assay: Antibacterial activity against Klebsiella pneumoniae ATCC 14581 assessed as inhibition of visible growth measured after 18 to 24 hrs by broth dilution method; assay type: functional; conditions: time 18-24 hrs
Staphylococcus aureus [1] = assay: Antibacterial activity against methicillin-resistant Staphylococcus aureus NCTC 10442 assessed as inhibition of visible growth measured after 18 to 24 hrs in presence of 24.3 ug/ml Mg2+ by broth dilution method; assay type: functional; conditions: time 18-24 hrs
Acinetobacter baumannii [2] = assay: Antibacterial activity against Acinetobacter baumannii ATCC 17978 assessed as inhibition of visible growth measured after 18 to 24 hrs by broth dilution method; assay type: functional; conditions: time 18-24 hrs
Staphylococcus aureus [3] = assay: Inhibition of biofilm formation Staphylococcus aureus ATCC 29213 assessed as decrease in biofilm formation at 0.39 ug/ml measured after 24 hrs by crystal violet staining assay; assay type: functional
Acinetobacter baumannii [4] = assay: Antibacterial activity against Acinetobacter baumannii R2889 assessed as inhibition of visible growth measured after 18 to 24 hrs by broth dilution method; assay type: functional; conditions: time 18-24 hrs
[5] = Toxicity in C57BL/6 mouse cornea assessed as corneal damage at 5 mg/ml treated topically; assay type: tissue-based; conditions: in vivo, topical_or_ocular, route top
Staphylococcus aureus [6] = assay: Antibacterial activity against methicillin-resistant Staphylococcus aureus N315 assessed as inhibition of visible growth measured after 18 to 24 hrs in presence of 3220 ug/ml Na+ by broth dilution method; assay type: functional; conditions: time 18-24 hrs
Staphylococcus aureus [7] = assay: Displacement of BODIPY-TR-cadaverin from Staphylococcus aureus lipoteichoic acid at MIC concentration incubated for 30 mins by fluorescence based analysis
Escherichia coli = assay: Antibacterial activity against Escherichia coli […] assessed as inhibition of visible growth measured after 18 to 24 hrs in presence of 175.5 ug/ml K+ by broth dilution method; assay type: functional; conditions: time 18-24 hrs

**Q.** For CCCCCCCCC(=O)NCc1ccc(OCCCCCCNC(=N)N)c(OCCCCCCNC(=N)N)c1, which MIC (Klebsiella pneumoniae) is on record?
**A.** The MIC was 1.56 µg/mL (≈ 2.78 µM).

**Q.** And the MIC (Staphylococcus aureus [1])?
**A.** The MIC was 0.39 µg/mL.

**Q.** What about the MIC (Acinetobacter baumannii [2]) of the same compound?
**A.** The MIC was 3.12 µg/mL (≈ 5.56 µM).

**Q.** And the inhibition at 0.39 µg/mL (Staphylococcus aureus [3])?
**A.** The inhibition at 0.39 µg/mL was 97.8%.

**Q.** What about the MIC (Acinetobacter baumannii [4]) of the same compound?
**A.** Its MIC is 6.25 µg/mL (≈ 11.1 µM).

**Q.** And the Activity [5]?
**A.** Its Activity is “Non-Toxic”.

**Q.** What about the MIC (Staphylococcus aureus [6]) of the same compound?
**A.** The MIC was 0.39 µg/mL.

**Q.** What about the Activity (Staphylococcus aureus [7]) of the same compound?
**A.** Its Activity is 10.2%.

**Q.** What about the MIC (Escherichia coli) of the same compound?
**A.** The MIC was 1.56 µg/mL.
